Patent US20230085307A1, “PYRIDAZINONE COMPOUND AND HERBICIDE” (NISSAN CHEMICAL CORPORATION, priority 2019, published 2023)

Tests used:
persian speedwell = assay: Test Example 5: herbicidal effect by foliage application, plastic box (Table 20, symbol R); format: in vivo, Persian speedwell (Veronica persica); conditions: foliage application, 320 g/ha, three weeks after application
Method in brief: (§1)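 Sow seeds spot-wise in sterilized diluvial soil; cover with ~1.5 cm soil. Grow 14 days in greenhouse, 25° C. to 30° C. Spray foliage with emulsion diluted to predetermined amount. Rate effect after 3 weeks.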

Chinese sprangletop = assay: Test Example 3: herbicidal effect by foliage application, Wagner pot (Table 18, symbol D); format: in vivo, chinese sprangletop (Leptochloa chinensis); conditions: amount of applied herbicide 320 g/ha
Method in brief: (§2)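 Plants were sown in alluvial soil held under 0.1–0.5 cm standing water and grown 14 days in a greenhouse at 25–30 °C. An emulsifiable formulation, water-diluted to the set dose, was then sprayed onto the foliage, and effects were scored three weeks later using previously defined criteria.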

blackgrass [1] = assay: Test Example 5: herbicidal effect by foliage application, plastic box (Table 20, symbol J); format: in vivo, blackgrass (Alopecurus myosuroides); conditions: foliage application, 320 g/ha, three weeks after application
Method in brief: as §1

lambsquarters [2] = assay: Test Example 4: herbicidal effect by soil treatment (Table 19, symbol O); format: in vivo, lambsquarters (Chenopodium album); conditions: amount of applied herbicide 320 g/ha
Method in brief: (§3)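 Applied as a water-diluted emulsion, the compound was sprayed onto soil covering newly sown seeds. Evaluation came three weeks after application, in a greenhouse held at 25° C. to 30° C.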

redroot pigweed [3] = assay: Test Example 5: herbicidal effect by foliage application, plastic box (Table 20, symbol N); format: in vivo, redroot pigweed (Amaranthus retroflexus); conditions: foliage application, 320 g/ha, three weeks after application
Method in brief: as §1

rice flat sedge = assay: Test Example 3: herbicidal effect by foliage application, Wagner pot (Table 18, symbol E); format: in vivo, rice flat sedge (Cyperus iria); conditions: amount of applied herbicide 320 g/ha
Method in brief: as §2

lambsquarters [4] = assay: Test Example 5: herbicidal effect by foliage application, plastic box (Table 20, symbol O); format: in vivo, lambsquarters (Chenopodium album); conditions: foliage application, 320 g/ha, three weeks after application
Method in brief: as §1

chickweed [5] = assay: Test Example 5: herbicidal effect by foliage application, plastic box (Table 20, symbol P); format: in vivo, common chickweed (Stellaria media); conditions: foliage application, 320 g/ha, three weeks after application
Method in brief: as §1

redroot pigweed [6] = assay: Test Example 4: herbicidal effect by soil treatment (Table 19, symbol N); format: in vivo, redroot pigweed (Amaranthus retroflexus); conditions: amount of applied herbicide 320 g/ha
Method in brief: as §3

false cleavers = assay: Test Example 5: herbicidal effect by foliage application, plastic box (Table 20, symbol Q); format: in vivo, false cleavers (Galium spurium); conditions: foliage application, 320 g/ha, three weeks after application
Method in brief: as §1

velvetleaf [7] = assay: Test Example 4: herbicidal effect by soil treatment (Table 19, symbol M); format: in vivo, velvetleaf (Abutilon theophrasti); conditions: amount of applied herbicide 320 g/ha
Method in brief: as §3

Japanese bulrush = assay: Test Example 1: herbicidal activity, application before weed generation under submerged conditions (Table 16, symbol B); format: in vivo, Japanese bulrush (Schoenoplectus juncoides); conditions: amount of applied herbicide 320 g/ha
Method in brief: (§4)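 Alluvial soil was flooded to 4 cm depth, weed seeds were sown mixed and 2.5-leaf rice seedlings were transplanted. On sowing day, the compound's emulsion, diluted in water to a set dose, was applied to the water surface. Plants grew at 25–30 °C and were scored 0–5 after three weeks.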

barnyard grass [8] = assay: Test Example 5: herbicidal effect by foliage application, plastic box (Table 20, symbol H); format: in vivo, barnyard grass (Echinochloa crus-galli); conditions: foliage application, 320 g/ha, three weeks after application
Method in brief: as §1

green foxtail [9] = assay: Test Example 4: herbicidal effect by soil treatment (Table 19, symbol G); format: in vivo, green foxtail (Setaria viridis); conditions: amount of applied herbicide 320 g/ha
Method in brief: as §3

southern crabgrass [10] = assay: Test Example 4: herbicidal effect by soil treatment (Table 19, symbol F); format: in vivo, southern crabgrass (Digitaria ciliaris); conditions: amount of applied herbicide 320 g/ha
Method in brief: as §3

barnyard grass [11] = assay: Test Example 4: herbicidal effect by soil treatment (Table 19, symbol H); format: in vivo, barnyard grass (Echinochloa crus-galli); conditions: amount of applied herbicide 320 g/ha
Method in brief: as §3

blackgrass [12] = assay: Test Example 4: herbicidal effect by soil treatment (Table 19, symbol J); format: in vivo, blackgrass (Alopecurus myosuroides); conditions: amount of applied herbicide 320 g/ha
Method in brief: as §3

wild oat [13] = assay: Test Example 4: herbicidal effect by soil treatment (Table 19, symbol I); format: in vivo, wild oat (Avena fatua); conditions: amount of applied herbicide 320 g/ha
Method in brief: as §3

windgrass [14] = assay: Test Example 4: herbicidal effect by soil treatment (Table 19, symbol L); format: in vivo, windgrass (Apera spica-venti); conditions: amount of applied herbicide 320 g/ha
Method in brief: as §3

windgrass [15] = assay: Test Example 5: herbicidal effect by foliage application, plastic box (Table 20, symbol L); format: in vivo, windgrass (Apera spica-venti); conditions: foliage application, 320 g/ha, three weeks after application
Method in brief: as §1

Italian ryegrass [16] = assay: Test Example 4: herbicidal effect by soil treatment (Table 19, symbol K); format: in vivo, Italian ryegrass (Lolium multiflorum); conditions: amount of applied herbicide 320 g/ha
Method in brief: as §3

barnyard grass [17] = assay: Test Example 3: herbicidal effect by foliage application, Wagner pot (Table 18, symbol H); format: in vivo, barnyard grass (Echinochloa crus-galli); conditions: amount of applied herbicide 320 g/ha
Method in brief: as §2

chickweed [18] = assay: Test Example 4: herbicidal effect by soil treatment (Table 19, symbol P); format: in vivo, common chickweed (Stellaria media); conditions: amount of applied herbicide 320 g/ha
Method in brief: as §3

wild oat [19] = assay: Test Example 5: herbicidal effect by foliage application, plastic box (Table 20, symbol I); format: in vivo, wild oat (Avena fatua); conditions: foliage application, 320 g/ha, three weeks after application
Method in brief: as §1

velvetleaf [20] = assay: Test Example 5: herbicidal effect by foliage application, plastic box (Table 20, symbol M); format: in vivo, velvetleaf (Abutilon theophrasti); conditions: foliage application, 320 g/ha, three weeks after application
Method in brief: as §1

late watergrass = assay: Test Example 1: herbicidal activity, application before weed generation under submerged conditions (Table 16, symbol A); format: in vivo, late watergrass (Echinochloa oryzicola); conditions: amount of applied herbicide 320 g/ha
Method in brief: as §4

green foxtail [21] = assay: Test Example 5: herbicidal effect by foliage application, plastic box (Table 20, symbol G); format: in vivo, green foxtail (Setaria viridis); conditions: foliage application, 320 g/ha, three weeks after application
Method in brief: as §1

Italian ryegrass [22] = assay: Test Example 5: herbicidal effect by foliage application, plastic box (Table 20, symbol K); format: in vivo, Italian ryegrass (Lolium multiflorum); conditions: foliage application, 320 g/ha, three weeks after application
Method in brief: as §1

southern crabgrass [23] = assay: Test Example 5: herbicidal effect by foliage application, plastic box (Table 20, symbol F); format: in vivo, southern crabgrass (Digitaria ciliaris); conditions: foliage application, 320 g/ha, three weeks after application
Method in brief: as §1

oval-leafed pondweed = assay: Test Example 1: herbicidal activity, application before weed generation under submerged conditions (Table 16, symbol C); format: in vivo, oval-leafed pondweed (Monochoria vaginalis); conditions: amount of applied herbicide 320 g/ha
Method in brief: as §4

Cc1nn(C)c(=O)c(-c2c(-c3ccc(OC(C)C)cc3)sc3cc(F)ccc23)c1O [3-019]
R: persian speedwell, herbicidal effect grade (persian speedwell): 5 (Herbicidal rate of 90% or more (almost completely withered))
herbicidal effect on D: Chinese sprangletop (Chinese sprangletop): 0 (Herbicidal rate of 5% or less (almost no effect))
J: blackgrass, herbicidal effect grade (blackgrass [1]): 3 (Herbicidal rate of 40% or more and less than 70%)
herbicidal effect, O: lambsquarters (lambsquarters [2]): 3 (Herbicidal rate of 40% or more and less than 70%)
N: redroot pigweed, herbicidal effect grade (redroot pigweed [3]): 5 (Herbicidal rate of 90% or more (almost completely withered))
herbicidal effect on E: rice flat sedge (rice flat sedge): 3 (Herbicidal rate of 40% or more and less than 70%)
O: lambsquarters, herbicidal effect grade (lambsquarters [4]): 0 (Herbicidal rate of 5% or less (almost no effect))
P: chickweed, herbicidal effect grade (chickweed [5]): 5 (Herbicidal rate of 90% or more (almost completely withered))
herbicidal effect, N: redroot pigweed (redroot pigweed [6]): 3 (Herbicidal rate of 40% or more and less than 70%)
Q: false cleavers, herbicidal effect grade (false cleavers): 4 (Herbicidal rate of 70% or more and less than 90%)
herbicidal effect, M: velvetleaf (velvetleaf [7]): 0 (Herbicidal rate of 5% or less (almost no effect))
Herbicidal effect, B: Japanese bulrush (Japanese bulrush): 3 (Herbicidal rate of 40% or more and less than 70%)
H: barnyard grass, herbicidal effect grade (barnyard grass [8]): 3 (Herbicidal rate of 40% or more and less than 70%)
herbicidal effect, G: green foxtail (green foxtail [9]): 2 (Herbicidal rate of 20% or more and less than 40%)
herbicidal effect, F: southern crabgrass (southern crabgrass [10]): 0 (Herbicidal rate of 5% or less (almost no effect))
herbicidal effect, H: barnyard grass (barnyard grass [11]): 0 (Herbicidal rate of 5% or less (almost no effect))
herbicidal effect, J: blackgrass (blackgrass [12]): 0 (Herbicidal rate of 5% or less (almost no effect))
herbicidal effect, I: wild oat (wild oat [13]): 0 (Herbicidal rate of 5% or less (almost no effect))
herbicidal effect, L: windgrass (windgrass [14]): 0 (Herbicidal rate of 5% or less (almost no effect))
L: windgrass, herbicidal effect grade (windgrass [15]): 3 (Herbicidal rate of 40% or more and less than 70%)
herbicidal effect, K: Italian ryegrass (Italian ryegrass [16]): 0 (Herbicidal rate of 5% or less (almost no effect))
herbicidal effect on H: barnyard grass (barnyard grass [17]): 3 (Herbicidal rate of 40% or more and less than 70%)
herbicidal effect, P: chickweed (chickweed [18]): 0 (Herbicidal rate of 5% or less (almost no effect))
I: wild oat, herbicidal effect grade (wild oat [19]): 0 (Herbicidal rate of 5% or less (almost no effect))
M: velvetleaf, herbicidal effect grade (velvetleaf [20]): 3 (Herbicidal rate of 40% or more and less than 70%)
Herbicidal effect, A: late watergrass (late watergrass): 3 (Herbicidal rate of 40% or more and less than 70%)
G: green foxtail, herbicidal effect grade (green foxtail [21]): 4 (Herbicidal rate of 70% or more and less than 90%)
K: Italian ryegrass, herbicidal effect grade (Italian ryegrass [22]): 3 (Herbicidal rate of 40% or more and less than 70%)
F: southern crabgrass, herbicidal effect grade (southern crabgrass [23]): 0 (Herbicidal rate of 5% or less (almost no effect))
Herbicidal effect, C: oval-leafed pondweed (oval-leafed pondweed): 3 (Herbicidal rate of 40% or more and less than 70%)
